Our source for the IC50 values is BindingDB's records for doi:10.1016/s0960-894x(03)00628-0 (Wyeth Research, 2003).

This test in a line: Inhibition of Src protein tyrosine kinase.

Regarding `COCCOc1cc2nc3ncnc(Nc4cc(OC)c(Cl)cc4Cl)c3cc2cc1OC` [(2,4-Dichloro-5-methoxy-phenyl)-[7-methoxy-8-(2-methoxy-ethoxy)-pyrimido[4,5-b]quinolin-4-yl]-amine], the concentration for half-maximal inhibition (IC50) (commonly the midpoint of a concentration-inhibition curve) is greater than 10 µM.
